We go through two compounds from patent publication US4769389A, “Oxygenated-alkyl derivatives of glutamic and aspartic acids with antagonistic activity to bio-active polypeptides and a method for their preparation” (priority 1985, dated 1988).

Data set [1] concerns pancreatitis in rats induced experimentally by taurocholate. Nature of the data set: Pancreatitis induced by sodium taurocolate in rats. It is filed as in vivo. Conditions: for ED50: Rattus norvegicus, ip, taurocholate, rats. As to the method: The products under examination were administered intraperitoneally (i.p.) 30 minutes before the operation and 3 hours after the operation. Six hours after the laparatomy the blood was removed from the retro-orbitory plexus after anaesthesia with ether, the animals were killed and the pancreas was removed and weighed. The activity of the serum amylase was determined by the method described above.

Another data set can be described thus: in vivo. The conditions noted are these: mouse, iv.
In data set [2] the test system is pancreatitis in mice induced experimentally by cerulein. Nature of the data set: Pancreatitis induced by cerulein in mice. It is filed as in vivo. Conditions: for ED50: Mus musculus, ip, cerulein, mice. How it is done:
Adult male mice received six injections of cerulein (Takus) (50 mcg/kg) each hour for six hours.
The compound was administered 30 minutes before each administration of cerulein. Nine hours after the beginning of the treatment, the blood was taken from the rectro-orbitory plexus after anaesthesia with ether, the animals were killed and the pancreas removed and weighed.

For another data set, the system named is digestive tract. The data set is described as follows: Antispastic activity, vegetable carbon test (speed of transit through stomach and intestine) in mice. It counts as in vivo. The conditions noted are these: Mus musculus, ip, read-out: A[…] ED50 (dose which reduces the intestinal transit time of the carbon by 50%), intraperitoneally. From the text:
The anti-spastic activity which the present compounds exert on the whole of the digestive tract is also considerable. Measured in mice with the vegetable carbon test (speed of transit through the stomach and intestine) this activity is illustrated in the following table: […]

The test system of another data set is guinea-pig gallbladder. Nature of the data set: Anti-CCK activity on guinea-pig gallbladders in vitro (contraction by CCK-8). As to the method: ANTI-CCK ACTIVITY ON GUINEA-PIG GALLBLADDERS IN VITRO A longitudinal strip of guinea-pig gallbladder is placed in a bath for isolated organs in Krebs at a temperature of 32° C. and oxygenated continuously with an oxygen-CO2 mixture (95-[…]). The isometric contractions were detected by means of a force transducer and recorded. […] The results obtained are shown in Table 3 which gives the compounds tested and the IC50 values found which were calculated by the method of regression in a test of at least three experiments for each compound studied.

In another data set the test system is guinea pig gall bladders. The data set is described as follows: Anti-CCK-8 activity on guinea-pig gallbladders in situ (in vivo). Conditions: Cavia porcellus, iv; CCK-8 10 ng/kg i.v.; compound i.v.; read-out: ID50, anti-CCK-8 activity in situ. As to the method: In order to confirm the evidence of the studies in vitro, several of the more interesting compounds were tested in vivo with the use of guinea-pig gallbladders in situ.
The method used was that described by Ljungberg (Svensk. Farm. Tidskr. 69, 351-354, 1964).
Guinea-pigs having a weight of about 400 g anaesthetised with urethane were used; the substances being tested were administered intravenously (i.v.) into the jugular vein.
The responses of the gallbladder to the substances being tested were detected by means of a force transducer and recorded by means of a microdynamometer. 10 ng/kg of CCK 8 were chosen as the optimum contracting dose. The antagonistic compounds tested were administered in increasing doses so as to enable the calculation of an ID50 value, that is the dose (in mg/kg i.v.) having a 50% inhibiting effect against contractions induced by 10 ng/kg i.v. of CCK-8.

The test system of a further data set is colon of rabbits. Nature of the data set: Antispastic activity in the colon of rabbits stimulated with CCK-8. It counts as in vivo, rabbit. Also noted: Antispastic activity in colon, EXPERIMENT 1 / Antispastic activity in colon, EXPERIMENT 2: unit not given here. Conditions: CCK 100 ng/kg. As to the method: The abdomen of anaesthetised rabbit is cut open to display the tranverse colon. A small balloon full of water is inserted at an established point and connected to a pressure transducer by means of a polyethylene cannula filled with H2 O.
The optimum sensitivity being fixed in relation to the physiological contractions, the products were administered through the femeral vein. Contractions were induced by the administration of 100 ng/kg of CCK.

Data set [3] deals with pancreatic adenocarcinoma. Nature of the data set: Inhibiting action on rate of growth of a pancreatic adenocarcinoma induced by CCK-8 in hamsters. It is filed as in vivo. An excerpt: (§1) Male hamsters were innoculated in the cheek pouch with a suspension of 1×10^5 tumour cells of a pancreatic adenocarcinoma.
(§2) Fifteen days after this treatment the animals were killed and the normal pancreas and the pancreatic tumours initiated in the cheek pouch were removed and weighed.
(§3) The DNA was extracted and measured by conventional methods.
(§4) The results obtained are given in Table 11 in which they are expressed as average values±S.E.

In another data set the test system is normal pancreatic cells. Nature of the data set: Action on growth rate of normal pancreas induced by CCK-8 in hamsters. It is filed as in vivo.
Text: as §1, §2, §3, §4

[4] abbreviates: CCK-8 8 mcg/kg three times a day.

Values after ≈ are worked out from the molar mass of the structure shown. Read-outs that look alike come from different tables or passages of the source.

Consider `CCCCCN(CCOCC)C(=O)C(CCC(=O)O)NC(=O)c1ccc(Cl)c(Cl)c1` (centres unmarked) [Compound 2], for which the “AMYLASE IN THE SERUM” value in data set [1] (5 mg/kg i.p. + taurocholate) was determined as 10.6 U/ml; in data set [1] (10 mg/kg i.p. + taurocholate), 8.9 U/ml; in data set [1] (20 mg/kg i.p. + taurocholate), 7.7 U/ml; in data set [2] (5 mg/kg ip + cerulein), 54.7 U/ml; in data set [2] (7.5 mg/kg ip + cerulein) it was 21.7 U/ml; in data set [2] (10 mg/kg ip + cerulein), 11.8 U/ml. Further, the “INHIBITION OF AMYLASE INCREASE” value in data set [1] (5 mg/kg i.p. + taurocholate) stood at 28.2%; in data set [1] (10 mg/kg i.p. + taurocholate), 71.8%; in data set [1] (20 mg/kg i.p. + taurocholate) it was 102.6%. Besides, the “INHIBITION OF WEIGHT INCREASE” value in data set [1] (5 mg/kg i.p. + taurocholate) is 44.4%; in [1] (10 mg/kg i.p. + taurocholate), 63.0%; in data set [1] (20 mg/kg i.p. + taurocholate) it was 74.1%; in data set [2] (5 mg/kg ip + cerulein), 55.2%; in data set [2] (7.5 mg/kg ip + cerulein) it was 88.3%; in [2] (10 mg/kg ip + cerulein), 98.3%. Besides, the “RATIO WEIGHT OF PANCREAS / ANIMAL WEIGHT” value is reported as 0.50% in data set [1] (5 mg/kg i.p. + taurocholate); 0.45% in data set [1] (10 mg/kg i.p. + taurocholate); 0.42% in data set [1] (20 mg/kg i.p. + taurocholate); 0.54% in [2] (5 mg/kg ip + cerulein); 0.45% in data set [2] (7.5 mg/kg ip + cerulein); 0.38% in data set [2] (10 mg/kg ip + cerulein). Further, the ED50 stood at 8.6 mg/kg in data set [1] (read-out: ED50, inhibition of amylase increase); 10.1 mg/kg in data set [1] (read-out: ED50, inhibition of weight increase); 4.6 mg/kg in data set [2] (read-out: ED50 (inhibition of weight increase)); 6.3 mg/kg in [2] (read-out: ED50, inhibition of weight increase of the pancreas); 14 mg/kg in the data set with digestive tract; 0.1 mg/kg in the data set with guinea pig gall bladders. The compound also registered an ED50 with colon of rabbits (Oryctolagus cuniculus, iv) of 1.47 mg/kg. Also, the median lethal dose (LD50) in the data set “in vivo” came to 338 mg/kg. The selectivity ratio in “in vivo” was found to be 3380. Besides, the “INHIBITION OF WEIGHT INCREASE (pancreas)” value is listed as 24.5% in data set [2] (5 mg/kg ip + cerulein), 61.2% in data set [2] (7.5 mg/kg ip + cerulein) and 89.8% in data set [2] (10 mg/kg ip + cerulein). The same compound showed an IC50 in the data set with guinea-pig gallbladder (Cavia porcellus, CCK-8 10 ng/ml, in vitro) of 0.1 µg/mL (≈ 0.217 µM). In the data set with guinea-pig gallbladder (vs CCK-8 10 ng/ml), the “50% antagonising concentration relative to that of the specific agonist” value is on record as “about 10 times”. For the same compound, the results for the “Antispastic activity in colon, EXPERIMENT 1” value in the data set on colon of rabbits (0.3 mg/kg i.v.), in the data set on colon of rabbits (1 mg/kg i.v.) and in the data set with colon of rabbits (3 mg/kg i.v.) were -9.8, -45.1 and -88.0, respectively. In addition, the “Antispastic activity in colon, EXPERIMENT 2” value is -27.2 in the data set on colon of rabbits (0.3 mg/kg i.v.), -39.8 in the data set with colon of rabbits (1 mg/kg i.v.) and -92.4 in the data set on colon of rabbits (3 mg/kg i.v.).
For “CCK-8: biologically active component of the hormone cholecystokinin [reference compound]”, in data set [3] (setting [4]), the “TUMORAL DNA” value came to 0.7 and the “WEIGHT OF THE PANCREATIC CARCINOMA” value amounted to 163.1 ± 4.7 mg. Further, the “effect on growth of a pancreatic adenocarcinoma” value in data set [3] (in words) is on record as “stimulates the growth of a pancreatic adenocacinoma”. Further, in the data set on normal pancreatic cells (setting [4]), the “PANCREATIC DNA” value was determined as 1.5 ± 0.06 mg and the “WEIGHT OF THE PANCREAS” value is reported as 634.8 ± 20.8 mg. Besides, the “effect on normal pancreatic cells” value in the data set with normal pancreatic cells (in words) is listed as “has a trophic action on normal pancreatic cells”.

For orientation: LD50 means the dose expected to kill half of the subjects tested. Usually IC50 stands for the concentration that inhibits the measured activity by half.
